Measured values reported in patent US20160010047A1, “DEVICE AND METHOD FOR WETTING A SAMPLE WITH AN AEROSOL” (Helmholtz Zentrum Muenchen Deutsches Forschungszentrum fuer …, priority 2013, published 2016).

Tested on: human pulmonary cell line (A549) stimulated with TNFα; interleukin 8 (IL-8)
Assay: Anti-inflammatory effect on TNFα-stimulated A549 cells (IL-8 as inflammatory marker), substance applied as aerosol at the ALI with device 2 or pipetted on submerged cells
Format: cell-based
Settings: FIG. 4
Text: On the other hand, if polarized lung epithelial cells (e.g. primary cells) are used, significant differences in the biological response can be expected. After stimulation of A549 cells with the tumor necrosis factor α (TNF α), the interleukin 8 (IL-8) as inflammatory marker is induced approximately 7-fold (corresponds to value 1 in FIG. 4), relative to the basal value (non-stimulated cells). […] This exemplifies that with device 2, aerosolized active substances can be applied accurately dosed and without loss of bioactivity (e.g. due to shear stresses during nebulization) on human pulmonary cells at the ALI. Thus, device 2 is suitable for the systematic screening of substances with respect to their potential as an active ingredient in aerosolized form.
This device 2 is thereby validated as a tool for quantitative drug screening for aerosolized liquid substances.

CC(C)C[C@H](NC(=O)[C@H](Cc1ccccc1)NC(=O)c1cnccn1)B(O)O [Bortezomib]
dose-response curve after administration in aerosolized form with device 2 (ALI) compared with reference curve (substance pipetted on submerged cells) (A549 cells at the ALI, TNFα-stimulated): identical to the reference curve
reduction of the TNFα-induced inflammatory effect (IL-8 induction), factor (A549 cells, non-polarized, stimulated with TNFα, dose-dependent): ≤ 2
